{
  "source": "paper PMC2551583",
  "about": "“Optimizing bioavailability of oral administration of small peptides through pharmacokinetic and pharmacodynamic parameters: The effect of water and timing of meal intake on oral delivery of Salmon Calcitonin” (BMC Clinical Pharmacology, 2008)",
  "test": "Plasma sCT pharmacokinetics after a single dose, phase I crossover study",
  "format": "in vivo, healthy postmenopausal women",
  "protocol": "The study was a randomized, partially-blind, placebo-controlled, single dose, exploratory crossover study to assess the PK and PD of 0.8 mg SMC021 in healthy postmenopausal women when taken in the morning with different volumes of water (50 or 200 ml) and at different times before a meal (10, 30, or 60 minutes). Subjects were blinded to treatment with SMC021 and placebo, but were not blinded to water volume intake and pre-meal dosing time. The PK and PD profiles of Miacalcic® 200 IU NS were additionally assessed in an open-label manner in a small subset of subjects.\nFemales fulfilling the inclusion criteria of being generally healthy ambulatory female volunteers, aged between 40–70 years and having passed a natural or surgically-induced menopause at least 5 years before entering the study and being without diseases or medications known to affect bone metabolism were allowed to participate. The study was of a 5-period, 10-treatment, 56-sequence crossover design. Subjects were randomly allocated to a sequence. The study contained 10 possible treatments, comprising a combination of study medication of SMC021, placebo, and Miacalcic® NS), water volume given with the tablet (50/200 ml water, and dosing time to meal (10, 30 or 60 minutes pre-meal) as outlined in Table 1. To reduce the burden of treatment to the subjects, an incomplete cross-over design was used. […]\nThe concentration of plasma sCT was measured by as chemiluminescence-based assay that previously have been described. Values measured below the lower limit of quantification of 2.5 pg/ml was assigned the value of 2.5 pg/ml. […] The lower limit of quantification (LLOQ) was 2.5 pg/mL. The quality control (QC) samples, ranging from 2.5 pg/mL to 700 pg/mL, were prepared daily and measured in 3 to 5 replicates. The overall accuracy and precision (CV) of QC samples, measured on 11 different days was 101.3% and 10.1% for 2.5 pg/mL concentration and 94.3% and 6.0% for 700 pg/mL concentration, respectively. […]",
  "data": [
    {"substance": "salmon calcitonin [sCT]", "values": [
      {"measurement": "time to maximum plasma sCT concentration after drug intake", "setting": "minimal if any effect of water and meal time", "result": "approximately 15 minutes"},
      {"measurement": "fold sCT AUC0–4 with 50 ml of water versus nasal calcitonin", "setting": "oral 0.8 mg with 50 ml water vs 200 IU nasal spray", "result": 4, "unit": "fold"},
      {"measurement": "fold higher absorption of sCT with 50 ml as compared with 200 ml of water", "setting": "oral 0.8 mg, Cmax and AUC0–4, irrespective of meal timing (10, 30, 60 min)", "result": "two-fold increase"}
    ]}
  ]
}
